Measured values published in ChEMBL document CHEMBL1154382, “Preliminary SAR analysis of novel antiproliferative N(6),5'-bis-ureidoadenosine derivatives” (2009).

Experiments:
Assay type in all cases: functional
U-251 = experiment: Antiproliferative activity against human U251 cells
SF-539 = experiment: Antiproliferative activity against human SF539 cells
UACC-257 = experiment: Antiproliferative activity against human UACC257 cells
K562 = experiment: Antiproliferative activity against human K562 cells
MDA-MB-435 = experiment: Antiproliferative activity against human MDA-MB-435 cells
HOP-92 = experiment: Antiproliferative activity against human HOP92 cells
A549 = experiment: Antiproliferative activity against human A549 cells
BT-549 = experiment: Antiproliferative activity against human BT549 cells
OVCAR-5 = experiment: Antiproliferative activity against human OVCAR5 cells
[1] = Antiproliferative activity against human Hs 578T cells
NCI-H23 = experiment: Antiproliferative activity against human NCI-H23 cells
RXF 393 = experiment: Antiproliferative activity against human RXF393 cells
[2] = Antiproliferative activity against human […] cells
EKVX = experiment: Antiproliferative activity against human EKVX cells
SF-268 = experiment: Antiproliferative activity against human SF268 cells
COLO 205 = experiment: Antiproliferative activity against human COLO205 cells
NCI-H226 = experiment: Antiproliferative activity against human NCI-H226 cells
OVCAR-8 = experiment: Antiproliferative activity against human OVCAR8 cells
TK-10 = experiment: Antiproliferative activity against human TK10 cells
UO-31 = experiment: Antiproliferative activity against human UO31 cells
OVCAR-3 = experiment: Antiproliferative activity against human OVCAR-3 cells
HCT-116 = experiment: Antiproliferative activity against human HCT116 cells
HL-60(TB) = experiment: Antiproliferative activity against human HL-60(TB) cells
A498 = experiment: Antiproliferative activity against human A498 cells
ACHN = experiment: Antiproliferative activity against human ACHN cells
HCC 2998 = experiment: Antiproliferative activity against human HCC2998 cells
NCI-H460 = experiment: Antiproliferative activity against human NCI-H460 cells
LOX IMVI = experiment: Antiproliferative activity against human LOXIMVI cells
SN12C = experiment: Antiproliferative activity against human SN12C cells
SK-OV-3 = experiment: Antiproliferative activity against human SKOV3 cells
NCI-H522 = experiment: Antiproliferative activity against human NCI-H522 cells
UACC-62 = experiment: Antiproliferative activity against human UACC62 cells
SK-MEL-28 = experiment: Antiproliferative activity against human SK-MEL-28 cells
T47D = experiment: Antiproliferative activity against human T47D cells
SNB-19 = experiment: Antiproliferative activity against human SNB19 cells
SK-MEL-5 = experiment: Antiproliferative activity against human SK-MEL-5 cells
SR = experiment: Antiproliferative activity against human SR cells
HOP-62 = experiment: Antiproliferative activity against human HOP62 cells
DU-145 = experiment: Antiproliferative activity against human DU145 cells
SNB-75 = experiment: Antiproliferative activity against human SNB75 cells
HCT-15 = experiment: Antiproliferative activity against human HCT15 cells
NCI-H322M = experiment: Antiproliferative activity against human NCI-H322M cells
HT-29 = experiment: Antiproliferative activity against human HT-29 cells
786-0 = experiment: Antiproliferative activity against human 786-0 cells
IGROV-1 = experiment: Antiproliferative activity against human IGROV1 cells
CCRF-CEM = experiment: Antiproliferative activity against human CCRF-CEM cells
MDA-MB-231 = experiment: Antiproliferative activity against human MDA-MB-231 cells
M14 = experiment: Antiproliferative activity against human M14 cells
SK-MEL-2 = experiment: Antiproliferative activity against human SK-MEL-2 cells
KM12 = experiment: Antiproliferative activity against human KM12 cells
CAKI-1 = experiment: Antiproliferative activity against human Caki1 cells
SF-295 = experiment: Antiproliferative activity against human SF295 cells
Malme-3M = experiment: Antiproliferative activity against human MALME-3M cells
OVCAR-4 = experiment: Antiproliferative activity against human OVCAR4 cells
MCF7 = experiment: Antiproliferative activity against human MCF7 cells
SW-620 = experiment: Antiproliferative activity against human SW620 cells
MOLT-4 = experiment: Antiproliferative activity against human MOLT4 cells
PC-3 = experiment: Antiproliferative activity against human PC3 cells

CNC(=O)NC[C@H]1O[C@@H](n2cnc3c(NC(=O)Nc4ccccc4)ncnc32)[C@H](O[Si](C)(C)C(C)(C)C)[C@@H]1CC(=O)N(C)OC
GI50 (U-251): 5.66 µM
GI50 (SF-539): 22.3 µM
GI50 (UACC-257): 22.6 µM
GI50 (K562): 3.12 µM
GI50 (MDA-MB-435): 10.9 µM
GI50 (HOP-92): 2.71 µM
GI50 (A549): 9.35 µM
GI50 (BT-549): 29 µM
GI50 (OVCAR-5): 38.2 µM
GI50 [1]: 5.79 µM
GI50 (NCI-H23): 57.2 µM
GI50 (RXF 393): 9.74 µM
GI50 [2]: 1.58 µM
GI50 (EKVX): 26.4 µM
GI50 (SF-268): 8.29 µM
GI50 (COLO 205): 12.3 µM
GI50 (NCI-H226): 41.9 µM
GI50 (OVCAR-8): 9.02 µM
GI50 (TK-10): 20.5 µM
GI50 (UO-31): 7.79 µM
GI50 (OVCAR-3): 7.11 µM
GI50 (HCT-116): 4.2 µM
GI50 (HL-60(TB)): 0.00181 µM
GI50 (A498): 3.87 µM
GI50 (ACHN): 14.4 µM
GI50 (HCC 2998): 30.6 µM
GI50 (NCI-H460): 7.49 µM
GI50 (LOX IMVI): 7.3 µM
GI50 (SN12C): 85.3 µM
GI50 (SK-OV-3): 52.7 µM
GI50 (NCI-H522): 11.1 µM
GI50 (UACC-62): 41.9 µM
GI50 (SK-MEL-28): 7.77 µM
GI50 (T47D): 13.9 µM
GI50 (SNB-19): > 100 µM
GI50 (SK-MEL-5): 5.81 µM
GI50 (SR): 1.27 µM
GI50 (HOP-62): 24.9 µM
GI50 (DU-145): 16.6 µM
GI50 (SNB-75): 12.7 µM
GI50 (HCT-15): 6.47 µM
GI50 (NCI-H322M): > 100 µM
GI50 (HT-29): 5.37 µM
GI50 (786-0): 9.01 µM
GI50 (IGROV-1): 3.72 µM
GI50 (CCRF-CEM): 6.37 µM
GI50 (MDA-MB-231): 12.3 µM
GI50 (M14): 15.2 µM
GI50 (SK-MEL-2): 14.9 µM
GI50 (KM12): 23.9 µM
GI50 (CAKI-1): 53.8 µM
GI50 (SF-295): 9.09 µM
GI50 (Malme-3M): 11.4 µM
GI50 (OVCAR-4): 53 µM
GI50 (MCF7): 5.59 µM
GI50 (SW-620): > 100 µM
GI50 (MOLT-4): 2.23 µM

CCOC(=O)C[C@H]1[C@@H](O[Si](C)(C)C(C)(C)C)[C@H](n2cnc3c(NC(=O)Nc4ccccc4)ncnc32)O[C@@H]1CNC(=O)NC
GI50 (U-251): 4.69 µM
GI50 (SF-539): 5.19 µM
GI50 (UACC-257): 5.68 µM
GI50 (K562): 3.59 µM
GI50 (MDA-MB-435): 6.21 µM
GI50 (HOP-92): < 0.01 µM
GI50 (A549): 4.18 µM
GI50 (BT-549): > 100 µM
GI50 (OVCAR-5): 31.1 µM
GI50 [1]: 3.6 µM
GI50 (NCI-H23): 33.3 µM
GI50 (RXF 393): 2.01 µM
GI50 [2]: 1.09 µM
GI50 (EKVX): 17.7 µM
GI50 (SF-268): 6.53 µM
GI50 (COLO 205): 3.84 µM
GI50 (NCI-H226): > 100 µM
GI50 (OVCAR-8): 4.92 µM
GI50 (PC-3): 2.25 µM
GI50 (TK-10): 12.4 µM
GI50 (UO-31): 12.1 µM
GI50 (OVCAR-3): 4.59 µM
GI50 (HCT-116): 3.2 µM
GI50 (HL-60(TB)): 0.00301 µM
GI50 (A498): 3.34 µM
GI50 (ACHN): 8.55 µM
GI50 (HCC 2998): > 100 µM
GI50 (NCI-H460): 5.54 µM
GI50 (LOX IMVI): 5.46 µM
GI50 (SN12C): 9.1 µM
GI50 (SK-OV-3): 21 µM
GI50 (NCI-H522): 4.36 µM
GI50 (UACC-62): > 100 µM
GI50 (SK-MEL-28): 6.85 µM
GI50 (T47D): 2.55 µM
GI50 (SNB-19): 29 µM
GI50 (SK-MEL-5): 4.34 µM
GI50 (SR): 2.23 µM
GI50 (HOP-62): 8.96 µM
GI50 (DU-145): 4.97 µM
GI50 (SNB-75): 4.56 µM
GI50 (HCT-15): 8.5 µM
GI50 (NCI-H322M): > 100 µM
GI50 (HT-29): 4.2 µM
GI50 (786-0): 2 µM
GI50 (IGROV-1): 3.85 µM
GI50 (CCRF-CEM): 6.69 µM
GI50 (MDA-MB-231): 3.96 µM
GI50 (M14): 2.51 µM
GI50 (SK-MEL-2): 5.42 µM
GI50 (KM12): 3.95 µM
GI50 (CAKI-1): 29.7 µM
GI50 (SF-295): 5.73 µM
GI50 (Malme-3M): 10.3 µM
GI50 (OVCAR-4): 12.3 µM
GI50 (MCF7): 3.42 µM
GI50 (SW-620): 4.8 µM
GI50 (MOLT-4): 2.39 µM
